Tests used:
[1] = test system: EBV positive human lymphoma HG-3 cells; assay: Alamar blue proliferation assay in HG-3 cells; format: cell-based; details: 72 hours; for IC50: Homo sapiens, concentration range 0.01-10 μM, Alamar blue assay, read-out: Anti-proliferative IC50 values; for anti-proliferative effect on HG-3 cells (in words): Alamar blue, FIG. 1 and Table 1
Method: (§1) One million human EBV positive lymphoma cell lines HG3 and LCL070903 (Rosén et al., 2012) were cultured in RPMI1640 media supplemented with 10% FCS. […] Following treatment cells were harvested and washed with 1× PBS. Total RNA was extracted as described below.
(§2) Alamarblue® and PrestoBlue proliferation assays were performed to determine the growth kinetics of EBV inhibitor treated cells. Alamar blue® and PrestoBlue consists of a cell permeable substrate resazurin. In metabolically active and proliferating cells, resazurin is converted to resorufin due to an intrinsic reducing power of live cells and produces a red fluorescence. Therefore production of resorufin serves as an indicator of the viability of the cell population.
(§3) Proliferation assays were performed by seeding 5000 cells/well in a 96 well plate. […] Each concentration was tested in 4 replicates. To determine the growth kinetics, 10 μl of Alamar blue® or PrestoBlue (Invitrogen) was added to each well and incubated for 4 hours. Readout was taken using Tecan F500 (Tecan) multiplate reader or Varioskan LUX (ThermoFisher) multiplate reader.
In order to determine anti-cancer activity of compounds in oncoviral driven cells, an EBV infected human Chronic Lymphocytic Leukemia cell line HG-3 was used (Rosen et al., 2012). In brief, HG-3 cells were plated in a 96 well plate and treated with an increasing concentration of compounds.

BMI1 (EBV target gene) [2] = assay: EBV target gene downregulation (qPCR) in LCL070903 cells: BMI1; format: cell-based, human; details: 48 hours; for inhibition at 10 µM: Homo sapiens, mRNA by qPCR, Table 6; for potency in downregulating EBV pathway (BMI1) compared with 6-(4-tert-butylphenoxy)pyridin-3-amine (in words): 10 μM, qRT-PCR, FIG. 3
Method: EBV positive human B LCL070903 cells were treated with 10 μM of the mentioned compounds for 48 hours. Following treatment, total RNA was extracted and mRNA expression analysed by qRT-PCR.
(§4) One million human EBV positive lymphoma cell lines HG3 and LCL070903 (Rosén et al., 2012) were cultured in RPMI1640 media supplemented with 10% FCS. For RNA expression analysis cells were treated with compounds at 10 μM concentration and for proliferation assay cells were treated at a concentration range of 0.01-100 μM. Following treatment cells were harvested and washed with 1× PBS. Total RNA was extracted as described below.
(§5) Total RNA was extracted from cells using TRIzol® extraction kit (Invitrogen). Briefly, 1×10^6 cells were washed with ice-cold 1× PBS and lysed in 1 ml of TRIzol® solution for 5 minutes at room temperature to dissociate nucleoprotein complexes. Lysed cells were then treated with 200 μl of chloroform and shaked vigorously for 15-30 seconds and incubated at room temperature for 2-3 minutes. The samples were centrifuged at 14000 rpm using Eppendorf table top centrifuge for 10 minutes at 4° C. Following centrifugation, upper aqueous phase was transferred to new eppendorf tubes. To precipitate total RNA 500 μl of […] was added to the separated aqueous phase and incubated at room temperature for 10 minutes. A RNA pellet was obtained by centrifuging the samples at 4° C. for 10 minutes. RNA pellet obtained was washed with 1 ml ice cold 75% ethanol and spun down at 14000 rpm at 4° C. RNA pellet was dried off of excess of ethanol and resuspended in 40 IA DPEC water.
(§6) Total RNA extracted from the cell was used to synthesize cDNA by reverse transcription reaction. Reverse transcription was performed according to one of the two following protocols.
(§7) In first protocol, SuperScript™ RT (Invitrogen) was used for reverse transcription reaction. RNA concentration was measured using NanoDrop®ND-1000 spectrophotometer (Witec AG) and 500 ng of total RNA was mixed with a 10 mM mix of dNTPs and 100 ng of random primers. The reaction mix was incubated at 65° C. for 5 minutes and quickly incubated on ice for 1 minute. Following incubation on ice, 5× first strand buffer and 0.1M DTT were added and mix was incubated for 2 minutes at 25° C. To start the reverse transcription reaction, 200U of SuperScrip™ II RT was added to the reaction mix and incubated at 42° C. for 50 minutes. The reaction was stopped by incubating the reaction mix at 75° C. for 15 minutes.
(§8) In second protocol, reverse transcription was performed using PrimeScript RT Master Mix (Takara). RNA concentration was measured using NanoDrop®ND-1000 spectrophotometer (Witec AG) and 1 μg of total RNA was mixed with 4 μL 5X PrimeScript RT Master Mix in a total reaction volume of 20 μL. The reaction mix was incubated at 37° C. for 15 minutes followed by heat inactivation at 85° C. for 5 seconds.
(§9) QRT-PCR was carried out using 7900 HT Fast Real-Time PCR system (Applied Biosystems) or QuantStudio 3 system (ThermoFisher). Briefly, 12.5 ng of template cDNA was used with a primer concentration of 0.5 μM each and lx SYBR Green dye in a final volume of 10 μL in a 96 well or 384 well plate format.
(§10) Upon infection of human cells, EBV is known to induce cancerous transformation of cells via upregulation of host as well as viral genes (e.g LMP1, EBNA2, BATF1, BMI1 and CD21). To determine the ability of compounds to downregulate EBV driven gene expression, HG-3 and LCL070903 cells were treated with selected compounds and percentage inhibition of EBV target genes was determined by quantitative PCR. As shown in Table 5 and Table 6, compounds down regulate EBV target genes such as BMI1 in HG-3 and LCL070903 cells, respectively (FIGS. 3 and 4).

BMI1 (EBV target gene) [3] = assay: EBV target gene downregulation (qPCR) in HG-3 cells: BMI1; format: cell-based, human; details: 48 hours; for inhibition at 10 µM: Homo sapiens, mRNA by qPCR, Table 5; for potency in downregulating EBV pathway (BMI1) compared with 6-(4-tert-butylphenoxy)pyridin-3-amine (in words): 10 μM, qRT-PCR, FIG. 4
Method: EBV positive human B HG-3 cells were treated with 10 μM of the mentioned compounds for 48 hours. Following treatment, total RNA was extracted and mRNA expression analysed by qRT-PCR.
as §4, §5, §6, §7, §8, §9, §10

NOTCH target gene HES1 = NOTCH target gene HES1 downregulation in RPMI 8402 cells; format: cell-based, human; set-up: Percentage inhibition of NOTCH target gene HES1: concentration or dose not given beside the values; details: RPMI 8402 cells (NOTCH1 positive, EBV negative)
Method: as §5, §6, §9
(§11) To determine the ability of compounds to downregulate EBV driven gene expression, HG-3 cells were treated with selected compounds and percentage inhibition of EBV target genes was determined by quantitative PCR. […] To further determine the anti-oncoviral specificity of compounds, these compounds were tested for their ability to downregulate a NOTCH target gene HES1 in a NOTCH1 positive (EBV negative) human leukemic cell line RPMI8402.

[4] = test system: EBV positive human B HG-3 cells; assay: PrestoBlue proliferation assay in HG-3 cells; format: cell-based; details: 72 hours; for IC50: Homo sapiens, concentration range 0.03-100 μM, PrestoBlue assay, read-out: Anti-proliferative IC50 values (μM) in HG-3 cells; for anti-proliferative effect on HG-3 cells (in words): PrestoBlue, FIG. 2 and Table 4
Method: as §1, §2, §3
In brief, HG-3 cells were plated in a 96 well plate and treated with an increasing concentration of compounds.

EBNA2 [5] = assay: EBV target gene downregulation (qPCR) in LCL070903 cells: EBNA2; format: cell-based; details: Homo sapiens, mRNA by qPCR, Table 6
Method: as §4, §5, §6, §7, §8, §9, §10

EBNA2 [6] = assay: EBV target gene downregulation (qPCR) in HG-3 cells: EBNA2; format: cell-based; details: Homo sapiens, mRNA by qPCR, Table 5
Method: as §4, §5, §6, §7, §8, §9, §11, §10

| Compound | IC50 [1] [µM] | inhibition at 10 µM (BMI1 (EBV target gene) [2]) [%] | inhibition at 10 µM (BMI1 (EBV target gene) [3]) [%] | IC50 [4] [µM] | anti-proliferative effect on HG-3 cells (in words) [1] | potency in downregulating EBV pathway (BMI1) compared with 6-(4-tert-butylphenoxy)pyridin-3-amine (in words) (BMI1 (EBV target gene) [2]) | potency in downregulating EBV pathway (BMI1) compared with 6-(4-tert-butylphenoxy)pyridin-3-amine (in words) (BMI1 (EBV target gene) [3]) | other results |
| --- | --- | --- | --- | --- | --- | --- | --- | --- |
| CC(C)(C)c1ccc(Oc2ccc(N)cn2)cc1 [6-(4-tert-Butylphenoxy)pyridin-3-amine, reference compound] | > 10 | < 0 | < 0 | > 10 | – | – | – | Percentage inhibition of NOTCH target gene HES1 (NOTCH target gene HES1): 80%; downregulation of NOTCH target gene HES1 (in words) (NOTCH target gene HES1): effectively downregulates HES1 |
| CC(C)(C)c1ccc(Oc2ccc(NCC#N)cn2)cc1 [Example 6, 2-((6-(4-(tert-Butyl)phenoxy)pyridin-3-yl)amino)acetonitrile] | 8 | – | – | – | demonstrate anti-proliferative effect | – | – | – |
| CC(C)(C)c1ccc(Oc2ccc(NCc3nn[nH]n3)cn2)cc1 [Example 7, N-((2H-Tetrazol-5-yl)methyl)-6-(4-(tert-butyl)phenoxy)pyridin-3-amine] | 7.1 | – | – | – | demonstrate anti-proliferative effect | – | – | – |
| CC(C)(C)c1ccc(Oc2ccc(NCc3nnco3)cn2)cc1 [Example 8, N-((1,3,4-Oxadiazol-2-yl)methyl)-6-(4-(tert-butyl)phenoxy)pyridin-3-amine] | 7.9 | – | – | – | demonstrate anti-proliferative effect | – | – | – |
| CC(C)(C)c1ccc(Oc2ccc(NCc3nnc(N)o3)cn2)cc1 [Example 9, 5-(((6-(4-(tert-Butyl)phenoxy)pyridin-3-yl)amino)methyl)-1,3,4-oxadiazol-2-amine] | 6.3 | – | – | – | demonstrate anti-proliferative effect | – | – | – |
| CC(C)(C)c1ccc(Oc2ccc(NCc3cccnc3)cc2F)cc1 [Example 18, 4-(4-(tert-Butyl)phenoxy)-3-fluoro-N-(pyridin-3-ylmethyl)aniline] | – | 24 | 10 | – | – | enhanced potency | enhanced potency | – |
| c1ccc(-c2ccc(Oc3ccc(NCc4cccnc4)cn3)cc2)cc1 [Example 20, 6-([1,1r-Biphenyl]-4-yloxy)-N-(pyridin-3-ylmethyl)pyridin-3-amine] | – | 44 | 35 | 0.3 | – | enhanced potency | – | anti-proliferative effect on HG-3 cells (in words) [4]: demonstrate anti-proliferative effect; inhibition at 10 µM (EBNA2 [5]): 27% |
| Cc1cc(Oc2ccc(-c3ccccc3)cc2)ncc1NCc1cccnc1 [Example 22, 6-([1,1′-Biphenyl]-4-yloxy)-4-methyl-N-(pyridin-3-ylmethyl)pyridin-3-amine] | – | 18 | 30 | 1.5 | – | enhanced potency | enhanced potency | anti-proliferative effect on HG-3 cells (in words) [4]: demonstrate anti-proliferative effect |
| Fc1ccc(-c2ccc(Oc3ccc(NCc4cccnc4)cn3)cc2)cc1 [Example 24, 6-((4′-Fluoro-[1,1′-biphenyl]-4-yl)oxy)-N-(pyridin-3-ylmethyl)pyridin-3-amine] | – | 61 | 15 | – | – | enhanced potency | enhanced potency | inhibition at 10 µM (EBNA2 [6]): 7% |
| Fc1cc(NCc2cccnc2)ccc1Oc1ccc(-c2ccccn2)cc1 [Example 25, 3-Fluoro-4-(4-(pyridin-2-yl)phenoxy)-N-(pyridin-3-ylmethyl)aniline] | – | 46 | 19 | 6.7 | – | enhanced potency | enhanced potency | inhibition at 10 µM (EBNA2 [6]): 1%; anti-proliferative effect on HG-3 cells (in words) [4]: demonstrate anti-proliferative effect |
| Fc1cc(NCc2cccnc2)ccc1Oc1ccc(-c2cccnc2)cc1 [Example 26, 3-Fluoro-4-(4-(pyridin-3-yl)phenoxy)-N-(pyridin-3-ylmethyl)aniline] | – | 53 | 11 | – | – | enhanced potency | enhanced potency | – |
| COC(c1ccc(NCc2cccnc2)cc1)c1ccc(-c2ccc(F)cc2)cc1 (stereo not drawn) [Example 31, 4-((4′-Fluoro-[1,1′-biphenyl]-4-yl)(methoxy)methyl)-N-(pyridin-3-ylmethyl)aniline] | – | 48 | 24 | – | – | enhanced potency | enhanced potency | – |
| Fc1ccc(-c2ccc(Cc3ccc(NCc4cccnc4)cc3)cc2)cc1 [Example 32, 4-((4′-Fluoro-[1,1′-biphenyl]-4-yl)methyl)-N-(pyridin-3-ylmethyl)aniline] | – | 45 | 13 | – | – | enhanced potency | enhanced potency | – |

— US20220185793A1, “COMPOUNDS FOR THE TREATMENT OF ONCOVIRUS INDUCED CANCER AND METHODS OF USE THEREOF” (Cellestia Biotech AG, priority 2019, published 2022)
